The values that follow come from the Deep4Chem optical property database.

The nature of this data set: photoluminescence quantum yield (fraction); solvent given as SMILES.

As for `CN(C)c1ccc(C2=Nc3sc4cc(C(F)(F)F)ccc4[n+]3[B-](F)(F)O2)cc1`, the photoluminescence quantum yield is, setting by setting: (in C1CCOC1) 0.61; (in CC#N) 0.05; (in CC(C)=O) 0.13; (in Cc1ccccc1) 0.93; (in ClCCl) 1.

With `CCOC(=O)COc1ccc(/C=C/C2=[N+]3C(=Cc4c5ccccc5c(-c5[nH]c(C)cc5C)n4[B-]3(F)F)C(C)=C2)cc1`, the photoluminescence quantum yield (in ClCCl) came to 0.75.

With `CCn1c2cc(OC)ccc2c2c3nsnc3c3c4ccc(OC)cc4n(CC)c3c21`, the photoluminescence quantum yield reads like this: (in CN(C)C=O) 0.49; (in Cc1ccccc1) 0.41; (in ClCCl) 0.44.

The compound `Cc1cc(C)c(C2=C3C=C(/C=C/C(=O)OC(C)(C)C)C=[N+]3[B-](F)(F)n3cccc32)c(C)c1` returned a photoluminescence quantum yield (in ClCCl) of 0.3.

Compound `Cc1cc2cc(N3c4ccccc4Oc4ccccc43)ccc2c(=O)o1` came in with a photoluminescence quantum yield (in c1cc(-c2cccc(-n3c4ccccc4c4ccccc43)c2)cc(-n2c3ccccc3c3ccccc32)c1) of 0.47.

With `CCCCC(CC)COc1cc(OCC(CC)CCCC)c2c#cc3ccc4oc5ccc(c#cc6cc(c#cc7ccc8oc9ccc(c#cc1c2)cc9c8c7)c(C(CCCC)OCCC)cc6C(CCCC)OCCC)cc5c4c3` (stereo not drawn), the photoluminescence quantum yield (in ClCCl) stood at 0.57.

`CN(C)c1ccc(-c2ccc(-c3cc(-c4ccccc4)c(-c4ccccc4)c(-c4ccccc4)c3-c3ccccc3)nc2)cc1` yielded a photoluminescence quantum yield (in ClC(Cl)Cl) of 0.33.

Compound `CCCCCCNC(=O)c1sc(-c2ccc(-c3cc(-c4ccc(C(C)(C)C)cc4)c(C(=O)NCCCCCC)s3)s2)cc1-c1ccc(C(C)(C)C)cc1` had a photoluminescence quantum yield (in ClCCl) of 0.31.

As to `c1ccc(-c2ccc3c(c2)c2cc(-c4ccccc4)ccc2n3-c2ccc3c(c2)c2cc(-n4c5ccc(-c6ccccc6)cc5c5cc(-c6ccccc6)ccc54)ccc2n3-c2ccc(-c3nc(-c4ccccc4)nc(-c4ccccc4)n3)cc2)cc1`, the photoluminescence quantum yield (in Cc1ccccc1) amounted to 0.74.

In turn, `CCCCCCCCCCCCSc1cc2c3c(ccc4c5c(SCCCCCCCCCCCC)cc6c7c(ccc(c1c34)c75)C(=O)N(C1CCCCC1)C6=O)C(=O)N(C1CCCCC1)C2=O` returned a photoluminescence quantum yield (in ClC(Cl)Cl) of 0.155.

Regarding `CCCCn1c(-c2ccc(-c3nnc(-c4ccccc4)o3)cc2)nc(-c2ccccc2)c1-c1ccccc1`, the photoluminescence quantum yield (in ClCCl) worked out at 0.21.

For `CCCCCCCCCCCCCCCCCCN1C(=O)c2ccc3c4ccc5c6c(ccc(c7ccc(c2c37)C1=O)c64)C(=O)N(CCCCCCCCCCCCCCCCCC)C5=O`, the photoluminescence quantum yield (in CN(C)C=O) came out at 0.8.

In turn, `CC(C)(C)c1ccc(N(c2ccccc2)c2ccc3ccc4c(N(c5ccccc5)c5ccc(C(C)(C)C)cc5)ccc5ccc2c3c54)cc1` showed a photoluminescence quantum yield (in ClCCl) of 0.71.

For the setting “in ClCCl”, `c1ccc2c(c1)OP1(=NP(Oc3ccc4ccc5cccc6ccc3c4c56)(Oc3ccc4ccc5cccc6ccc3c4c56)=NP(Oc3ccc4ccc5cccc6ccc3c4c56)(Oc3ccc4ccc5cccc6ccc3c4c56)=N1)Oc1ccccc1-2` showed a photoluminescence quantum yield of 0.89.

Compound `c1ccc2c(c1)[nH]c1c3[nH]c4ccccc4c3c3nsnc3c21` had a photoluminescence quantum yield (in CN(C)C=O) of 0.05, a photoluminescence quantum yield (in Cc1ccccc1) of 0.07 and a photoluminescence quantum yield (in ClCCl) of 0.06.

For the compound `Cc1c(COC(=O)c2ccccc2Br)n2c(OCC(=O)c3ccccc3Br)c(C)c(=O)n2c1=O`, where the note is “in CCO”, the photoluminescence quantum yield was determined as 0.841.

For `O=C(O)c1cc2c(ccc3ccccc32)oc1=O`, the photoluminescence quantum yield (in C1COCCO1) was found to be 0.53; the photoluminescence quantum yield (in CC#N) was found to be 0.54; the photoluminescence quantum yield (in CCCCO) worked out at 0.27; the photoluminescence quantum yield (in CCO) was 0.07; the photoluminescence quantum yield (in CO) amounted to 0.1; the photoluminescence quantum yield (in O) worked out at 0.41.

Regarding `CCC1=C(C)C2=C(c3cc(C(=O)Cl)cc(C(=O)Cl)c3)c3c(C)c(CC)c(C)n3[B-](F)(F)[N+]2=C1C`, the photoluminescence quantum yield runs as follows: (in C1CCOC1) 0.61; (in CC#N) 0.22; (in CN(C)C=O) 0.39; (in Cc1ccccc1) 0.57; (in ClC(Cl)Cl) 0.53.

For `CN(C)c1ccc(C2=Nc3sc4ccccc4[n+]3[B-](F)(F)O2)cc1`, the photoluminescence quantum yield worked out at 0.78 (in C1CCOC1); 0.17 (in CC#N); 0.31 (in CC(C)=O); 0.84 (in Cc1ccccc1); 0.77 (in ClCCl).

Regarding `C(=C/c1ccc(N(c2ccccc2)c2ccccc2)cc1)/c1ccc(N(c2ccccc2)c2ccccc2)cc1`, the photoluminescence quantum yield (in ClCCl) is 0.99.

As to `CC(C)[Si](C#Cc1ccc(C#C[Si](C(C)C)(C(C)C)C(C)C)c2nc3ccccc3nc12)(C(C)C)C(C)C`, the photoluminescence quantum yield (in ClCCl) was 0.02.

Regarding `CC(C)c1ccc(/C=C/c2nc3ccc(N(C)C)cc3s2)cc1`, the photoluminescence quantum yield is 0.51 (in C1CCCCC1) and 0.54 (in CC#N).

For `CC1=CC(/C=C/c2ccc3ccc4cccc5ccc2c3c45)=[N+]2C1=C(c1ccccc1)c1c(C)cc(/C=C/c3ccc4ccc5cccc6ccc3c4c56)n1[B-]2(F)F`, the photoluminescence quantum yield (in CC1CCCO1) was determined as 0.8.

Regarding `CC1(C)c2cc(C#N)ccc2-c2ccc(N3c4ccccc4Oc4ccccc43)cc21`, the photoluminescence quantum yield came out at 0.044 (in C1CCCCC1); 0.08 (in C1CCOC1); 0.001 (in CC#N); 0.089 (in Cc1ccccc1); 0.11 (in ClC(Cl)Cl).

`c1ccc2cc(-c3c4ccccc4c(-c4ccc(-c5ccc(-n6c7ccccc7c7ccccc76)cc5)cc4)c4ccccc34)ccc2c1`: for the setting “in ClCCl”, the photoluminescence quantum yield was found to be 0.7.

Turning to `Cc1c(COC(=O)Cc2ccccc2)n2c(OCC(=O)Cc3ccccc3)c(C)c(=O)n2c1=O`, the photoluminescence quantum yield (in CCO) is 0.836.

`F[B-]1(F)n2c(c(-c3ccccc3)c3c2C2=Cc4ccccc4OC2CC3)C=C2C(c3ccccc3)=C3CCC4Oc5ccccc5C=C4C3=[N+]21` (stereo not drawn): the photoluminescence quantum yield (in ClC(Cl)Cl) was found to be 0.06.

Under “in ClCCl”, `O=C1c2cccc3cc(C#CC#Cc4cc5c6c(cccc6c4)C(=O)N(c4ccccc4)C5=O)cc(c23)C(=O)N1c1ccccc1` yielded a photoluminescence quantum yield of 0.79.

Compound `Cc1cc2cc(C)c3c4ccccc4[nH]c3c2o1` yielded a photoluminescence quantum yield (in ClCCl) of 0.2.

For `F[B-]1(F)n2c(ccc2-c2nc3ccccc3s2)C(c2ccccc2)=C2C=CC(c3nc4ccccc4s3)=[N+]21`, under “in ClC(Cl)Cl”, the photoluminescence quantum yield turned out to be 0.86.

`F[B-]1(F)OC(c2ccc(Br)cc2)=Cc2ccc3ccccc3[n+]21` had a photoluminescence quantum yield (in ClC(Cl)Cl) of 0.49.

For `CC(C)(C)c1cc(-c2ccc(-c3cc(C(C)(C)C)cc(C(C)(C)C)c3)cc2)cc(C(C)(C)C)c1`, the photoluminescence quantum yield (in C1COCCO1) amounted to 0.58.

As for `C(=C\c1ccc2ccccc2c1)/c1ccc(N(c2ccccc2)c2ccccc2)cc1`, the photoluminescence quantum yield turned out to be 0.42 (in CC#N) and 0.61 (in CCCCCC).

In the case of `c1ccc2cc3c(cc2c1)-c1cccc2c1c-3cc1ccccc12`, the photoluminescence quantum yield (in CCCCCCC) came to 0.73.

On to `CC1=C(C#Cc2ccc([Si](c3ccccc3)(c3ccccc3)c3ccccc3)cc2)C(C)=[N+]2C1=C(c1ccccc1)c1c(C)c(C#Cc3ccc([Si](c4ccccc4)(c4ccccc4)c4ccccc4)cc3)c(C)n1[B-]2(F)F`, for which, for the setting “in ClCCl”, the photoluminescence quantum yield was found to be 0.15.

Regarding `COc1ccc(C2=CC(c3ccccc3)=[N+]3C2=Nc2c(-c4ccc(OC)cc4)cc(-c4ccccc4)n2[B-]3(F)F)cc1`, the photoluminescence quantum yield reads like this: (in Cc1ccccc1) 0.24; (in ClC(Cl)Cl) 0.23.

`C(/C=C/c1cc2c3c(c1)CCCN3CCC2)=C\c1ccncc1`: the photoluminescence quantum yield (in C1COCCO1) was 0.031, the photoluminescence quantum yield (in CC#N) stood at 0.034, the photoluminescence quantum yield (in CCCCCCC) turned out to be 0.033 and the photoluminescence quantum yield (in CO) came out at 0.016.
